These are literature values, as cited in patent US8137579B2, “Non-aqueous heat transfer fluid and use thereof” (priority 1993, dated 2012).

Where [1] appears, read: laboratory rats, single dose, acute oral.

Where two headings read alike, the source gives them in different places.

Consider `OCCOCCO` [Diethylene glycol], for which, in the data set on laboratory rats (setting [1]), the LD50 rating was 16600 mg/kg.

Regarding `OCCO` [EG, ethylene glycol], the LD50 rating in the data set with laboratory rats (setting [1]) is 6100 mg/kg. Besides, the “toxic level to humans, reported as low as” value with humans is given as 0.398 g/kg.

`CC(O)CO` (stereo not drawn) [PG, propylene glycol]: the LD50 rating with laboratory rats (setting [1]) was 33700 mg/kg.

Regarding `OCCOCCOCCO` [triethylene glycol], the LD50 rating in the data set on laboratory rats (rat, in vivo, po) is 22000 mg/kg.

With `CC(O)COC(C)COC(C)CO` (stereo not drawn) [tripropylene glycol], in the data set with laboratory rats (rat, in vivo, po), the LD50 rating is 3000 mg/kg.
